Consider 30 compounds from the NIST ThermoML archive (doi:10.1016/j.jct.2011.09.028).

Each structure is given as a SMILES string. ± gives the expanded uncertainty stated by the source.

The series in a line: activity coefficient (dimensionless); of the first substance listed, at infinite dilution; xn = mol fraction of the nth substance listed. The conditions noted are these: 101 kPa, Liquid, Chromatography, x1 = 0.

Consider `COCCOC` [1,2-dimethoxyethane] + CCn1cc[n+](C)c1.N#C[B-](C#N)(C#N)C#N, for which the activity coefficient came to 0.452 ± 0.03 (318.15 K); 0.47 ± 0.03 (323.15 K); 0.505 ± 0.031 (333.15 K); 0.539 ± 0.031 (343.15 K); 0.574 ± 0.032 (353.15 K).

With `Cc1cccc(C)c1` [1,3-dimethylbenzene] + CCn1cc[n+](C)c1.N#C[B-](C#N)(C#N)C#N, the activity coefficient is, setting by setting: (318.15 K) 2.62 ± 0.13; (323.15 K) 2.62 ± 0.13; (333.15 K) 2.63 ± 0.13; (343.15 K) 2.63 ± 0.13; (353.15 K) 2.64 ± 0.14.

As to `FC(F)(F)C(Cl)Br` (stereo not given) [1-bromo-1-chloro-2,2,2-trifluoroethane] + CCn1cc[n+](C)c1.N#C[B-](C#N)(C#N)C#N, the activity coefficient was 1.16 ± 0.05 (318.15 K); 1.19 ± 0.05 (323.15 K); 1.28 ± 0.06 (333.15 K); 1.34 ± 0.06 (343.15 K); 1.41 ± 0.07 (353.15 K).

`COC(C)(C)C` [2-methoxy-2-methylpropane] + CCn1cc[n+](C)c1.N#C[B-](C#N)(C#N)C#N: the activity coefficient (318.15 K) was determined as 2.77 ± 0.14; the activity coefficient (323.15 K) stood at 2.8 ± 0.14; the activity coefficient (333.15 K) is 2.85 ± 0.15; the activity coefficient (343.15 K) came out at 2.9 ± 0.15; the activity coefficient (353.15 K) was 2.95 ± 0.15.

As for `CC(C)=O` [acetone] + CCn1cc[n+](C)c1.N#C[B-](C#N)(C#N)C#N, the activity coefficient (318.15 K) is 0.437 ± 0.029; the activity coefficient (323.15 K) came to 0.443 ± 0.03; the activity coefficient (333.15 K) came out at 0.454 ± 0.03; the activity coefficient (343.15 K) came out at 0.466 ± 0.03; the activity coefficient (353.15 K) was found to be 0.479 ± 0.03.

For the compound `CC#N` [acetonitrile] + CCn1cc[n+](C)c1.N#C[B-](C#N)(C#N)C#N, the activity coefficient reads like this: (318.15 K) 0.428 ± 0.029; (323.15 K) 0.43 ± 0.029; (333.15 K) 0.43 ± 0.029; (343.15 K) 0.431 ± 0.029; (353.15 K) 0.432 ± 0.029.

`c1ccccc1` [benzene] + CCn1cc[n+](C)c1.N#C[B-](C#N)(C#N)C#N: the activity coefficient worked out at 1.15 ± 0.05 (318.15 K); 1.15 ± 0.05 (323.15 K); 1.17 ± 0.05 (333.15 K); 1.18 ± 0.05 (343.15 K); 1.19 ± 0.05 (353.15 K).

As for `CCC(C)=O` [butanone] + CCn1cc[n+](C)c1.N#C[B-](C#N)(C#N)C#N, the activity coefficient (318.15 K) came to 0.577 ± 0.032; the activity coefficient (323.15 K) stood at 0.584 ± 0.032; the activity coefficient (333.15 K) came out at 0.605 ± 0.033; the activity coefficient (343.15 K) was 0.611 ± 0.033; the activity coefficient (353.15 K) was 0.626 ± 0.033.

As for `C1CCCCC1` [cyclohexane] + CCn1cc[n+](C)c1.N#C[B-](C#N)(C#N)C#N, the activity coefficient (318.15 K) is 13.8 ± 0.7; the activity coefficient (323.15 K) amounted to 13.4 ± 0.7; the activity coefficient (333.15 K) was found to be 12.5 ± 0.6; the activity coefficient (343.15 K) turned out to be 11.8 ± 0.6; the activity coefficient (353.15 K) was found to be 11.1 ± 0.6.

With `ClCCl` [dichloromethane] + CCn1cc[n+](C)c1.N#C[B-](C#N)(C#N)C#N, the activity coefficient by setting is: (318.15 K) 0.656 ± 0.034; (323.15 K) 0.665 ± 0.034; (333.15 K) 0.682 ± 0.034; (343.15 K) 0.698 ± 0.035; (353.15 K) 0.714 ± 0.035.

Take `CC(C)OC(C)C` [diisopropyl ether] + CCn1cc[n+](C)c1.N#C[B-](C#N)(C#N)C#N: the activity coefficient was found to be 7.07 ± 0.36 (318.15 K); 7.08 ± 0.36 (323.15 K); 7.1 ± 0.37 (333.15 K); 7.11 ± 0.37 (343.15 K); 7.13 ± 0.37 (353.15 K).

For `COC(=O)OC` [dimethyl carbonate] + CCn1cc[n+](C)c1.N#C[B-](C#N)(C#N)C#N, the activity coefficient by setting is: (318.15 K) 0.528 ± 0.031; (323.15 K) 0.535 ± 0.031; (333.15 K) 0.549 ± 0.031; (343.15 K) 0.563 ± 0.032; (353.15 K) 0.576 ± 0.032.

Take `CCO` [ethanol] + CCn1cc[n+](C)c1.N#C[B-](C#N)(C#N)C#N: the activity coefficient is, setting by setting: (318.15 K) 1.3 ± 0.06; (323.15 K) 1.25 ± 0.06; (333.15 K) 1.15 ± 0.05; (343.15 K) 1.07 ± 0.05; (353.15 K) 1 ± 0.04.

Regarding `CCOC(C)=O` [ethyl acetate] + CCn1cc[n+](C)c1.N#C[B-](C#N)(C#N)C#N, the activity coefficient is, setting by setting: (318.15 K) 0.989 ± 0.043; (323.15 K) 1 ± 0.04; (333.15 K) 1.02 ± 0.05; (343.15 K) 1.04 ± 0.05; (353.15 K) 1.06 ± 0.05.

On to `CCc1ccccc1` [ethylbenzene] + CCn1cc[n+](C)c1.N#C[B-](C#N)(C#N)C#N, for which the activity coefficient by setting is: (318.15 K) 2.62 ± 0.13; (323.15 K) 2.61 ± 0.13; (333.15 K) 2.61 ± 0.13; (343.15 K) 2.61 ± 0.13; (353.15 K) 2.61 ± 0.13.

On to `CCC1CCCCC1` [ethylcyclohexane] + CCn1cc[n+](C)c1.N#C[B-](C#N)(C#N)C#N, for which the activity coefficient (318.15 K) was 318 ± 17; the activity coefficient (323.15 K) is 323 ± 17; the activity coefficient (333.15 K) is 333 ± 17; the activity coefficient (343.15 K) is 343 ± 18; the activity coefficient (353.15 K) was 353 ± 18.

For the compound `CCCCCCC` [heptane] + CCn1cc[n+](C)c1.N#C[B-](C#N)(C#N)C#N, the activity coefficient (318.15 K) is 42.4 ± 2.2; the activity coefficient (323.15 K) was determined as 40.7 ± 2.1; the activity coefficient (333.15 K) amounted to 37.5 ± 1.9; the activity coefficient (343.15 K) was found to be 34.8 ± 1.8; the activity coefficient (353.15 K) was found to be 32.3 ± 1.7.

In the case of `CO` [methanol] + CCn1cc[n+](C)c1.N#C[B-](C#N)(C#N)C#N, the activity coefficient (318.15 K) is 0.917 ± 0.041; the activity coefficient (323.15 K) came out at 0.89 ± 0.04; the activity coefficient (333.15 K) stood at 0.84 ± 0.039; the activity coefficient (343.15 K) worked out at 0.795 ± 0.038; the activity coefficient (353.15 K) was determined as 0.755 ± 0.036.

Consider `COC(C)=O` [methyl ethanoate] + CCn1cc[n+](C)c1.N#C[B-](C#N)(C#N)C#N, for which the activity coefficient is, setting by setting: (318.15 K) 0.653 ± 0.034; (323.15 K) 0.662 ± 0.034; (333.15 K) 0.682 ± 0.034; (343.15 K) 0.7 ± 0.035; (353.15 K) 0.723 ± 0.036.

Take `CC1CCCCC1` [methylcyclohexane] + CCn1cc[n+](C)c1.N#C[B-](C#N)(C#N)C#N: the activity coefficient was determined as 20.4 ± 1.1 (318.15 K); 19.7 ± 1 (323.15 K); 18.4 ± 1 (333.15 K); 17.2 ± 0.9 (343.15 K); 16.3 ± 0.8 (353.15 K).

As for `C[N+](=O)[O-]` [nitromethane] + CCn1cc[n+](C)c1.N#C[B-](C#N)(C#N)C#N, the activity coefficient is, setting by setting: (318.15 K) 0.419 ± 0.029; (323.15 K) 0.421 ± 0.029; (333.15 K) 0.423 ± 0.029; (343.15 K) 0.426 ± 0.029; (353.15 K) 0.429 ± 0.029.

With `C=CCCCCCC` [oct-1-ene] + CCn1cc[n+](C)c1.N#C[B-](C#N)(C#N)C#N, the activity coefficient is 28.8 ± 1.5 (318.15 K); 27.8 ± 1.4 (323.15 K); 26.1 ± 1.4 (333.15 K); 24.6 ± 1.3 (343.15 K); 23.3 ± 1.2 (353.15 K).

With `CCCCCCCC` [octane] + CCn1cc[n+](C)c1.N#C[B-](C#N)(C#N)C#N, the activity coefficient (318.15 K) is 64.2 ± 3.3; the activity coefficient (323.15 K) was 61.2 ± 3.2; the activity coefficient (333.15 K) worked out at 55.8 ± 2.9; the activity coefficient (343.15 K) came out at 51 ± 2.7; the activity coefficient (353.15 K) was found to be 47 ± 2.4.

As for `CCCO` [propan-1-ol] + CCn1cc[n+](C)c1.N#C[B-](C#N)(C#N)C#N, the activity coefficient runs as follows: (318.15 K) 1.62 ± 0.08; (323.15 K) 1.55 ± 0.08; (333.15 K) 1.42 ± 0.07; (343.15 K) 1.31 ± 0.06; (353.15 K) 1.22 ± 0.06.

Consider `CC(C)O` [propan-2-ol] + CCn1cc[n+](C)c1.N#C[B-](C#N)(C#N)C#N, for which the activity coefficient is, setting by setting: (318.15 K) 1.63 ± 0.08; (323.15 K) 1.56 ± 0.08; (333.15 K) 1.43 ± 0.07; (343.15 K) 1.32 ± 0.06; (353.15 K) 1.23 ± 0.06.

With `ClC(Cl)(Cl)Cl` [tetrachloromethane] + CCn1cc[n+](C)c1.N#C[B-](C#N)(C#N)C#N, the activity coefficient is, setting by setting: (318.15 K) 3.56 ± 0.18; (323.15 K) 3.56 ± 0.18; (333.15 K) 3.55 ± 0.18; (343.15 K) 3.54 ± 0.18; (353.15 K) 3.53 ± 0.18.

Consider `C1CCOC1` [tetrahydrofuran] + CCn1cc[n+](C)c1.N#C[B-](C#N)(C#N)C#N, for which the activity coefficient is, setting by setting: (318.15 K) 0.699 ± 0.035; (323.15 K) 0.709 ± 0.035; (333.15 K) 0.727 ± 0.036; (343.15 K) 0.744 ± 0.036; (353.15 K) 0.761 ± 0.037.

Consider `c1ccsc1` [thiophene] + CCn1cc[n+](C)c1.N#C[B-](C#N)(C#N)C#N, for which the activity coefficient was found to be 0.942 ± 0.042 (318.15 K); 0.947 ± 0.042 (323.15 K); 0.957 ± 0.042 (333.15 K); 0.967 ± 0.043 (343.15 K); 0.978 ± 0.043 (353.15 K).

On to `Cc1ccccc1` [toluene] + CCn1cc[n+](C)c1.N#C[B-](C#N)(C#N)C#N, for which the activity coefficient came to 1.68 ± 0.08 (318.15 K); 1.69 ± 0.08 (323.15 K); 1.71 ± 0.09 (333.15 K); 1.72 ± 0.09 (343.15 K); 1.74 ± 0.09 (353.15 K).

For `ClC(Cl)Cl` [trichloromethane] + CCn1cc[n+](C)c1.N#C[B-](C#N)(C#N)C#N, the activity coefficient reads like this: (318.15 K) 0.812 ± 0.038; (323.15 K) 0.829 ± 0.038; (333.15 K) 0.863 ± 0.039; (343.15 K) 0.895 ± 0.04; (353.15 K) 0.926 ± 0.041.
